Assay results taken from publication PMC6199309, “A therapeutic approach to pantothenate kinase associated neurodegeneration” (Nature Communications, 2018).
In brackets after ≈: the same amount, converted by molar mass.

Tests used:
[1] = target: T1, JAK3(JH1domain-catalytic) (Homo sapiens, UniProt P52333); test: KINOMEscan; format: binding; conditions: read-out: %Ctrl @ 10000nM
T1 construct: JAK3(JH1domain-catalytic); purchased DiscoverX KINOMEscan

FLT3(ITD) = format: binding, human
EGFR(L858R) = target: T2, EGFR(L858R) (Homo sapiens, UniProt P00533, L858R); test: KINOMEscan; format: binding; conditions: read-out: %Ctrl @ 10000nM
T2 construct: purchased DiscoverX KINOMEscan

LATS1 = target: T3, LATS1 (Homo sapiens, UniProt O95835); test: KINOMEscan; format: binding; conditions: read-out: %Ctrl @ 10000nM
T3 construct: purchased DiscoverX KINOMEscan

[2] = target: T4, JAK1(JH1domain-catalytic) (Homo sapiens, UniProt P23458); test: KINOMEscan; format: binding; conditions: read-out: %Ctrl @ 10000nM
T4 construct: JAK1(JH1domain-catalytic); purchased DiscoverX KINOMEscan

TRKB = target: T5, TRKB (Homo sapiens, UniProt Q16620); test: KINOMEscan; format: binding; conditions: read-out: %Ctrl @ 10000nM
T5 construct: purchased DiscoverX KINOMEscan

PRKD3 = target: T6, PRKD3 (Homo sapiens, UniProt O94806); test: KINOMEscan; format: binding; conditions: read-out: %Ctrl @ 10000nM
T6 construct: purchased DiscoverX KINOMEscan

FLT4 = target: T7, FLT4 (Homo sapiens, UniProt P35916); test: KINOMEscan; format: binding; conditions: read-out: %Ctrl @ 10000nM
T7 construct: purchased DiscoverX KINOMEscan

TIE2 = target: T8, TIE2 (Homo sapiens, UniProt Q02763); test: KINOMEscan; format: binding; conditions: read-out: %Ctrl @ 10000nM
T8 construct: purchased DiscoverX KINOMEscan

YSK4 = target: T9, YSK4 (Homo sapiens, UniProt Q56UN5); test: KINOMEscan; format: binding; conditions: read-out: %Ctrl @ 10000nM
T9 construct: purchased DiscoverX scanMAX; host or cells: E. coli BL21-derived host (T7 phage) or HEK-293

HPK1 = target: T10, HPK1 (Homo sapiens, UniProt Q92918); test: KINOMEscan; format: binding; conditions: read-out: %Ctrl @ 10000nM
T10 construct: purchased DiscoverX KINOMEscan

EPHB1 = target: T11, EPHB1 (Homo sapiens, UniProt P54762); test: KINOMEscan; format: binding; conditions: read-out: %Ctrl @ 10000nM
T11 construct: purchased DiscoverX KINOMEscan

AXL = target: T12, AXL (Homo sapiens, UniProt P30530); test: KINOMEscan; format: binding; conditions: read-out: %Ctrl @ 10000nM
T12 construct: purchased DiscoverX KINOMEscan

SgK110 = target: T13, SgK110 (Homo sapiens, UniProt P0C264); test: KINOMEscan; format: binding; conditions: read-out: %Ctrl @ 10000nM
T13 construct: purchased DiscoverX KINOMEscan

AURKA = target: T14, AURKA (Homo sapiens, UniProt O14965); test: KINOMEscan; format: binding; conditions: read-out: %Ctrl @ 10000nM
T14 construct: purchased DiscoverX KINOMEscan

MYLK = target: T15, MYLK (Homo sapiens, UniProt Q15746); test: KINOMEscan; format: binding; conditions: read-out: %Ctrl @ 10000nM
T15 construct: purchased DiscoverX KINOMEscan

[3] = target: T16, RSK4(Kin.Dom.1-N-terminal) (Homo sapiens, UniProt Q9UK32); test: KINOMEscan; format: binding; conditions: read-out: %Ctrl @ 10000nM
T16 construct: RSK4(Kin.Dom.1-N-terminal); purchased DiscoverX KINOMEscan

LCK = target: T17, LCK (Homo sapiens, UniProt P06239); test: KINOMEscan; format: binding; conditions: read-out: %Ctrl @ 10000nM
T17 construct: purchased DiscoverX KINOMEscan

S6K1 = target: T18, S6K1 (Homo sapiens, UniProt P23443); test: KINOMEscan; format: binding; conditions: read-out: %Ctrl @ 10000nM
T18 construct: purchased DiscoverX KINOMEscan

IRAK1 = target: T19, IRAK1 (Homo sapiens, UniProt P51617); test: KINOMEscan; format: binding; conditions: read-out: %Ctrl @ 10000nM
T19 construct: purchased DiscoverX KINOMEscan

PIM3 = target: T20, PIM3 (Homo sapiens, UniProt Q86V86); test: KINOMEscan; format: binding; conditions: read-out: %Ctrl @ 10000nM
T20 construct: purchased DiscoverX KINOMEscan

MST1R = target: T21, MST1R (Homo sapiens, UniProt Q04912); test: KINOMEscan; format: binding; conditions: read-out: %Ctrl @ 10000nM
T21 construct: purchased DiscoverX KINOMEscan

PRKCQ = target: T22, PRKCQ (Homo sapiens, UniProt Q04759); test: KINOMEscan; format: binding; conditions: read-out: %Ctrl @ 10000nM
T22 construct: purchased DiscoverX KINOMEscan

NEK11 = target: T23, NEK11 (Homo sapiens, UniProt Q8NG66); test: KINOMEscan; format: binding; conditions: read-out: %Ctrl @ 10000nM
T23 construct: purchased DiscoverX KINOMEscan

AKT3 = target: T24, AKT3 (Homo sapiens, UniProt Q9Y243); test: KINOMEscan; format: binding; conditions: read-out: %Ctrl @ 10000nM
T24 construct: purchased DiscoverX KINOMEscan

AKT1 = target: T25, AKT1 (Homo sapiens, UniProt P31749); test: KINOMEscan; format: binding; conditions: read-out: %Ctrl @ 10000nM
T25 construct: purchased DiscoverX KINOMEscan

NEK2 = target: T26, NEK2 (Homo sapiens, UniProt P51955); test: KINOMEscan; format: binding; conditions: read-out: %Ctrl @ 10000nM
T26 construct: purchased DiscoverX KINOMEscan

CLK2 = target: T27, CLK2 (Homo sapiens, UniProt P49760); test: KINOMEscan; format: binding; conditions: read-out: %Ctrl @ 10000nM
T27 construct: purchased DiscoverX KINOMEscan

Protein binding = conditions: rat
MEK5 = target: T28, MEK5 (Homo sapiens, UniProt Q13163); test: KINOMEscan; format: binding; conditions: read-out: %Ctrl @ 10000nM
T28 construct: purchased DiscoverX KINOMEscan

CDKL3 = target: T29, CDKL3 (Homo sapiens, UniProt Q8IVW4); test: KINOMEscan; format: binding; conditions: read-out: %Ctrl @ 10000nM
T29 construct: purchased DiscoverX KINOMEscan

DYRK1A = target: T30, DYRK1A (Homo sapiens, UniProt Q13627); test: KINOMEscan; format: binding; conditions: read-out: %Ctrl @ 10000nM
T30 construct: purchased DiscoverX KINOMEscan

GRK3 = target: T31, GRK3 (Homo sapiens, UniProt P35626); test: KINOMEscan KdELECT; format: binding
T31 construct: DNA tag for qPCR (T7 phage fusion or DNA label); purchased DiscoverX KdELECT; host or cells: E. coli BL21-derived (T7 phage) or HEK-293

BMPR1B = target: T32, BMPR1B (Homo sapiens, UniProt O00238); test: KINOMEscan; format: binding; conditions: read-out: %Ctrl @ 10000nM
T32 construct: purchased DiscoverX KINOMEscan

[4] = target: T33, RSK2(Kin.Dom.1-N-terminal) (Homo sapiens, UniProt P51812); test: KINOMEscan; format: binding; conditions: read-out: %Ctrl @ 10000nM
T33 construct: RSK2(Kin.Dom.1-N-terminal); purchased DiscoverX KINOMEscan

CTK = target: T34, CTK (Homo sapiens, UniProt P42679); test: KINOMEscan; format: binding; conditions: read-out: %Ctrl @ 10000nM
T34 construct: purchased DiscoverX KINOMEscan

FAK = target: T35, FAK (Homo sapiens, UniProt Q05397); test: KINOMEscan; format: binding; conditions: read-out: %Ctrl @ 10000nM
T35 construct: purchased DiscoverX KINOMEscan

[5] = target: T36, RPS6KA4(Kin.Dom.2-C-terminal) (Homo sapiens, UniProt O75676); test: KINOMEscan; format: binding; conditions: read-out: %Ctrl @ 10000nM
T36 construct: RPS6KA4(Kin.Dom.2-C-terminal); purchased DiscoverX KINOMEscan

PHKG1 = target: T37, PHKG1 (Homo sapiens, UniProt Q16816); test: KINOMEscan; format: binding; conditions: read-out: %Ctrl @ 10000nM
T37 construct: purchased DiscoverX KINOMEscan

PDGFRB = target: T38, PDGFRB (Homo sapiens, UniProt P09619); test: KINOMEscan; format: binding; conditions: read-out: %Ctrl @ 10000nM
T38 construct: purchased DiscoverX KINOMEscan

T19 sequence (P51617 whole entry): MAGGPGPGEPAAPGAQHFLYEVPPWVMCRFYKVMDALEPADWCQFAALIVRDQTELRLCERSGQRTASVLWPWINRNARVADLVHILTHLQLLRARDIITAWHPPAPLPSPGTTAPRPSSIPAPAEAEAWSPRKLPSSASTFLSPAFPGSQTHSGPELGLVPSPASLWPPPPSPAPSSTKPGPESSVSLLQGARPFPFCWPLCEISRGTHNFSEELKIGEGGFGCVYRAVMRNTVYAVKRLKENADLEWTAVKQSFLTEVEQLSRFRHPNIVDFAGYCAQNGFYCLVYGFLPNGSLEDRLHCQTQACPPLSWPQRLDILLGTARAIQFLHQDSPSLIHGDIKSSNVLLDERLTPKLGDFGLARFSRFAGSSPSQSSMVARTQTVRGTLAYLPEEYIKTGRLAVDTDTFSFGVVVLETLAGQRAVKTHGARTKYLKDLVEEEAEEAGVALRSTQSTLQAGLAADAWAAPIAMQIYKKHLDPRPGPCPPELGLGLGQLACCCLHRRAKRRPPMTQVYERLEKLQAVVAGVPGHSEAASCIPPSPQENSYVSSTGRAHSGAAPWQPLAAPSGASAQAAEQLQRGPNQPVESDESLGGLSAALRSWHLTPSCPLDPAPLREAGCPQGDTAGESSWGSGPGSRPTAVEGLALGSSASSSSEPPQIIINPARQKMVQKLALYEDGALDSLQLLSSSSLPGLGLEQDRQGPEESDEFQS
T37 sequence (Q16816 whole entry): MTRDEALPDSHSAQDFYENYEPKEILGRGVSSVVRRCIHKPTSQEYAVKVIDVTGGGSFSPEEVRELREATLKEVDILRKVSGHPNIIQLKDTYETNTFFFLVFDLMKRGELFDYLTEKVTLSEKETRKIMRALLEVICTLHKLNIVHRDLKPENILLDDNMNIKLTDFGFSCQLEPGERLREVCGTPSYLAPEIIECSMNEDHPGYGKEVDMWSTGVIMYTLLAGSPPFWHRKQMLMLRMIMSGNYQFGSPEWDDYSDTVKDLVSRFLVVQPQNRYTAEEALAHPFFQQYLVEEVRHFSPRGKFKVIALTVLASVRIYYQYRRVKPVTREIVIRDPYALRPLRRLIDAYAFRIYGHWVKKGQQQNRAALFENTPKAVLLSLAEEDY
T27 sequence (P49760 whole entry): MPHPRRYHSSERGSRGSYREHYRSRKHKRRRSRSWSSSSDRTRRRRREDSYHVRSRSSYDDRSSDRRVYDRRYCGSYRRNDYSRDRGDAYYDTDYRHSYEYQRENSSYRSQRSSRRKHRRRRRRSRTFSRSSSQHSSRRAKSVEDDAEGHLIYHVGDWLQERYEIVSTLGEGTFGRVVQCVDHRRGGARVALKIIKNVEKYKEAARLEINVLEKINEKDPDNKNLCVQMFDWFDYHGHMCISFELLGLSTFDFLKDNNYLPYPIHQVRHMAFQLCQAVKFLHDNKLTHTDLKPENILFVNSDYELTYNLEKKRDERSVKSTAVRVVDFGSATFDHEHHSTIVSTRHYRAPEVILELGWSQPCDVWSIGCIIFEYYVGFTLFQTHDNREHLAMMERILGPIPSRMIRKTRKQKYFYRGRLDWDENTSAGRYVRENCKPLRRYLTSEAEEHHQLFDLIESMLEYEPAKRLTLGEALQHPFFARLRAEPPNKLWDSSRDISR
T34 sequence (P42679 whole entry): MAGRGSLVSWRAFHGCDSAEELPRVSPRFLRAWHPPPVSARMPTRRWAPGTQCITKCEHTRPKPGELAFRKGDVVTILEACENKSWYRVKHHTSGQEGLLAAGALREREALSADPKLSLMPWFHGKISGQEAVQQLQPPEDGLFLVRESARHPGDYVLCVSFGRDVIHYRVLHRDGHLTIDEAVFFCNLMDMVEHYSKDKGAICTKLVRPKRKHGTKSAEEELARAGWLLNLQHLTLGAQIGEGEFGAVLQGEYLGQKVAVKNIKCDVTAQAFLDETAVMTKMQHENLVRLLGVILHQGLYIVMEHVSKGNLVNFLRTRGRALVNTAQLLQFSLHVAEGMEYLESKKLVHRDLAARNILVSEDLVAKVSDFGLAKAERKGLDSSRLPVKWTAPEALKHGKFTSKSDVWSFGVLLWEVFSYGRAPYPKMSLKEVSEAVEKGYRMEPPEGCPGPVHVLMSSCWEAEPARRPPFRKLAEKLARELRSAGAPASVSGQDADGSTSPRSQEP
T1 sequence (P52333 814-1124 limits assumed): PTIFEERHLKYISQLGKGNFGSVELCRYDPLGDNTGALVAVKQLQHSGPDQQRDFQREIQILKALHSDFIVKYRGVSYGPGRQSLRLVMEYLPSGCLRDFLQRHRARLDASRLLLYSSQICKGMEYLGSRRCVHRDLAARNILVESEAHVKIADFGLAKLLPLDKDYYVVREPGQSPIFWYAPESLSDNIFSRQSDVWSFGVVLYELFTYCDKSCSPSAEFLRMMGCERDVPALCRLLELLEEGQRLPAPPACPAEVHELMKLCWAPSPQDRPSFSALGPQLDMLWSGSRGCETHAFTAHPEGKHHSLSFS
T32 sequence (O00238 14-502): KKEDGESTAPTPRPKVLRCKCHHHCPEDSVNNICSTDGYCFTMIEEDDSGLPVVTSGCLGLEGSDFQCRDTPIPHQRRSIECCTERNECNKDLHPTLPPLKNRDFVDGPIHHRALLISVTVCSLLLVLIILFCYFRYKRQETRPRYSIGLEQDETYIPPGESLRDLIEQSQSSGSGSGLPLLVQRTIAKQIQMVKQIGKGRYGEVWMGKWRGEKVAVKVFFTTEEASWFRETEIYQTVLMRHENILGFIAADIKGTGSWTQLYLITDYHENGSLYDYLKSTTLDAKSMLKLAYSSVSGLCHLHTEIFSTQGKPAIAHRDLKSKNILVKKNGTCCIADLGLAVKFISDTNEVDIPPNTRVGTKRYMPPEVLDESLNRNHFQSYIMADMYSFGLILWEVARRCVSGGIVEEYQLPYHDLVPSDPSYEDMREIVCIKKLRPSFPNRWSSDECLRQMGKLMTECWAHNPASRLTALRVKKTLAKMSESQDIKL
T9 sequence (Q56UN5 whole entry): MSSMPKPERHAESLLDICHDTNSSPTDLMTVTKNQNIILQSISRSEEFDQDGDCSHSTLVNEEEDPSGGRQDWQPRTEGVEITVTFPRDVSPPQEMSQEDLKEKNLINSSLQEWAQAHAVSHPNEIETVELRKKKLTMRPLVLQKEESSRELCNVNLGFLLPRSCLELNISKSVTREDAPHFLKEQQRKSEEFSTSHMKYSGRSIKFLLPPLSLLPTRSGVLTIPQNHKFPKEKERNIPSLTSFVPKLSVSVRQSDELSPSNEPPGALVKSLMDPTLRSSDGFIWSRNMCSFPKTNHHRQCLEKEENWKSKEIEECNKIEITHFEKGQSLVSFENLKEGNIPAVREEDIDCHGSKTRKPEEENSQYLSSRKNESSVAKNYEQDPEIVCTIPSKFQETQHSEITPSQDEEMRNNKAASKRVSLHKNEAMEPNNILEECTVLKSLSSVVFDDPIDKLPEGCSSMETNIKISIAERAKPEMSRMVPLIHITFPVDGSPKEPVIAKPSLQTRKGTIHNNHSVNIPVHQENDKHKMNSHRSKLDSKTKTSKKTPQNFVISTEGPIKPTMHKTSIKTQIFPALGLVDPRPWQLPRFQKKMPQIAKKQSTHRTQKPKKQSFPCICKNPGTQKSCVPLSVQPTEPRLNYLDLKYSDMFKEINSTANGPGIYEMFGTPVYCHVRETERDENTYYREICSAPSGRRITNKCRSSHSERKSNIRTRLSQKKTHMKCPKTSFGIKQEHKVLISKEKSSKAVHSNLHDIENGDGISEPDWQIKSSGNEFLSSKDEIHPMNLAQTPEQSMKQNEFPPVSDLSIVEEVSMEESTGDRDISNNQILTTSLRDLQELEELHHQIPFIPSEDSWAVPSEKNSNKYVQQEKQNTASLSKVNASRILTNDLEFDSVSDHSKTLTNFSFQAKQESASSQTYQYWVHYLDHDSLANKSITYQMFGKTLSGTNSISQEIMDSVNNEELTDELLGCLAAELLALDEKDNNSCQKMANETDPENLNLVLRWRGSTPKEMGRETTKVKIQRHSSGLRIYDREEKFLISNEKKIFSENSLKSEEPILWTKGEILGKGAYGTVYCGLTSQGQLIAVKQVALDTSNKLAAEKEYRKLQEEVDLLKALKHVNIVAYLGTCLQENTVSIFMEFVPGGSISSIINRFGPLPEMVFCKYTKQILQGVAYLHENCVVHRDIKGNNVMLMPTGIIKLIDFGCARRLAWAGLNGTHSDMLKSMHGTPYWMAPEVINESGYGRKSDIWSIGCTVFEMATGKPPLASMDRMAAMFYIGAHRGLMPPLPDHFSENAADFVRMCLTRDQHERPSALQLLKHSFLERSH
T26 sequence (P51955 whole entry): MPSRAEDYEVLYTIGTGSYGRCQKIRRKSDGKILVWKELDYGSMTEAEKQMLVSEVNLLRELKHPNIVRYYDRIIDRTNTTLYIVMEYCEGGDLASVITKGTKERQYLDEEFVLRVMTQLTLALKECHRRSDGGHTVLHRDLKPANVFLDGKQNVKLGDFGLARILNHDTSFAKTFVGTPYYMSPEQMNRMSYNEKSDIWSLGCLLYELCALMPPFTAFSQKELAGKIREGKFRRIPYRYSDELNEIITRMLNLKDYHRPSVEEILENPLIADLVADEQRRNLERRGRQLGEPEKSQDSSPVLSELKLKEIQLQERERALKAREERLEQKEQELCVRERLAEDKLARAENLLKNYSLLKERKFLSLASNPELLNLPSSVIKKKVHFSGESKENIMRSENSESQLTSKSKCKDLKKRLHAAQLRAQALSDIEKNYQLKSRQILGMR
T4 sequence (P23458 854-1154 limits assumed): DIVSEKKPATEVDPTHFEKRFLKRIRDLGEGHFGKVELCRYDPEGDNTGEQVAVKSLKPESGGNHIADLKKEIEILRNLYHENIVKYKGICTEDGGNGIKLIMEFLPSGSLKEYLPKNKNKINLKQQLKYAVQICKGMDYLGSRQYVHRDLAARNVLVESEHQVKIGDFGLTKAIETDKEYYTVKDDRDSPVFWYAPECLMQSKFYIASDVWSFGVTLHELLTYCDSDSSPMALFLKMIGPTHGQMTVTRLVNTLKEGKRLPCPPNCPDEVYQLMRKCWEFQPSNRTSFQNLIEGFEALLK

CC(C)c1ccc(CC(=O)N2CCN(c3ccc(C#N)nn3)CC2)cc1 [PZ-2891, 6-(4-(2-(4-isopropylphenyl)acetyl)piperazin-1-yl)pyridazine-3-carbonitrile]
remaining binding at 10 µM [1]: 94% | %Ctrl @ 10000nM (FLT3(ITD)): 99% | remaining binding at 10 µM (EGFR(L858R)): 84% | remaining binding at 10 µM (LATS1): 86% | remaining binding at 10 µM [2]: 74% | remaining binding at 10 µM (TRKB): 100% | remaining binding at 10 µM (PRKD3): 66% | remaining binding at 10 µM (FLT4): 91% | solubility (Solubility at pH 7.4): 23 µM (≈ 8.04 µg/mL) | remaining binding at 10 µM (TIE2): 97% | remaining binding at 10 µM (YSK4): 89% | remaining binding at 10 µM (HPK1): 100% | remaining binding at 10 µM (EPHB1): 90% | remaining binding at 10 µM (AXL): 73% | remaining binding at 10 µM (SgK110): 94% | remaining binding at 10 µM (AURKA): 75% | remaining binding at 10 µM (MYLK): 75% | remaining binding at 10 µM [3]: 97% | remaining binding at 10 µM (LCK): 98% | remaining binding at 10 µM (S6K1): 96% | remaining binding at 10 µM (IRAK1): 91% | remaining binding at 10 µM (PIM3): 58% | remaining binding at 10 µM (MST1R): 73% | remaining binding at 10 µM (PRKCQ): 100% | remaining binding at 10 µM (NEK11): 99% | remaining binding at 10 µM (AKT3): 82% | remaining binding at 10 µM (AKT1): 98% | remaining binding at 10 µM (NEK2): 88% | remaining binding at 10 µM (CLK2): 94% | fraction unbound (Protein binding): 0.09 | remaining binding at 10 µM (MEK5): 69% | remaining binding at 10 µM (CDKL3): 86% | remaining binding at 10 µM (DYRK1A): 71% | Kd (GRK3): > 30 µM | remaining binding at 10 µM (BMPR1B): 60% | remaining binding at 10 µM [4]: 80% | remaining binding at 10 µM (CTK): 77% | remaining binding at 10 µM (FAK): 89% | remaining binding at 10 µM [5]: 67% | remaining binding at 10 µM (PHKG1): 88% | remaining binding at 10 µM (PDGFRB): 75%
